Results published in patent US20090253709A1 (NATIONAL DEFENSE MEDICAL CENTER, priority 2008, published 2009).
Where two headings read alike, the source gives them in different places.

How the values were obtained:
MTT assay in H1299 cells = assay type: cell-based; conditions: human, H1299 cells (H1299/PhTERT-driven SEAP reporter system), H1299, read-out: MTT (Inhibition μM ± SD); for viability at 24 h, 1 µM: compound concentration 1 μM; for viability at 24 h, 10 µM: compound concentration 10 μM; for viability at 24 h, 100 µM: compound concentration 100 μM
Method: H1299 is a non-small cell lung cancer cell line with telomerase activity. The cell extract of H1299 cell lines can be used for selecting the telomerase activity inhibitors in vitro and the telomerase activity-inhibited substances in vivo. H1299 cell line was incubated with RPMI 1640 medium supplemented with 10% of fetal bovine serum (FBS). A total of 2×10^3 […] cells were seeded in the 96-well cell culture plate, and incubated with DMEM (GIBCO®)/glucose mixture and Medium 199 (GIBCO®)/10% FBS/1 mM sodium pyruvate (GIBCO®)/4 mM L-glutamine (GIBCO®) mixture at a ratio of 4:1 at 37° C. for 24 hours. […] After 48 hours of drug treatment, the cultured medium were collected for performing the analysis of SEAP activity. The cells were washed with 1×PBS once immediately, and the MTT assay was performed to compare the compounds with the relative toxicity or the influence to the proliferation and activity. Mitochondria is the place for cellular respiration, and there are many reductive reactions catalyzed by dehydrogenases. MTT is a water-soluble yellow compound, and the […] will be formed after reduction. This crystal can be dissolved in the organic solvent, and has high absorbance at the wavelength of 570 nm. The higher cellular activity or more cell numbers, the more generated crystal violets. Therefore, the cellular activity and cell number can be obtained by the MTT assay. MTT solution was prepared by dissolving MTT powder in PBS solution to achieve 5 mg/ml, filtrated and stored at 4° C. Lysis buffer contained 20% (w/v) of SDS in 50% of N,N-dimethylformamide (DMF, Riedel-deHaën). After the cells were incubated in the 96-well culture plate, the original medium was discarded, 100 μl of the fresh serum-free medium per well and 25 μl of MTT solution per well were added in respectively, and the cells were further incubated in the CO2 incubator at 37° C. for 4 hours. Then, 100 μl of lysis buffer per well was added in and incubated overnight in the CO2 incubator at 37° C. The absorbance at 570 nm was determined by the ELISA reader. The selection of telomerase inhibitors of the anthraquinone compounds provided in the present invention was performed by the […]-driven SEAP system. SEAP is the communication gene in this drug selection model. The SEAP inhibition was shown as follows. […] Subsequently, the linear slope of absorbance to the measuring time was calculated, and the variance of absorbance at 405 nm per minute was represented and compared with the SEAP-producing result of drug-untreated H1299 cells. In addition, the influence of the cell-treated drug solution to the cellular proliferation and the drug toxicity to the cells were considered, and the cellular growth was evaluated by the MTT assay. The drug-treated cells were analyzed by the SEAP assay and the data analysis of MTT assay at the same time. Both results were compared so as to delete the influence of cell number or the activity to SEAP, and the dose-dependent phenomenon could be anticipated in the range of drug concentration designed by the laboratory. […] Since the chemically-synthetic drugs have colors thereon, the SEAP value of drug-treatment without cells was also determined to be the background value which was deducted while treating with the drugs. The candidate drug for inhibiting telomerase on the hTERT gene expression level was evaluated and anticipated.

telomerase = test: Telomeric repeat amplification protocol (TRAP); assay type: biochemical; conditions: compounds at 100, 10 and 1 μM; gel electrophoresis
hTERT expression = test: SEAP assay in hTERT-BJ1-PTERT(3.4)-SEAP cells; assay type: cell-based; conditions: Homo sapiens, read-out: SEAP (Inhibition μM ± SD)
Method: A total of 2×10^3 hTERT-BJ1-PTERT(3.4)-SEAP cells were seeded in the 96-well cell culture plate, and incubated with DMEM (GIBCO®)/glucose mixture and Medium 199 (GIBCO®)/10% FBS/1 mM sodium pyruvate (GIBCO®)/4 mM L-glutamine (GIBCO®) mixture at a ratio of 4:1 at 37° C. for 24 hours. When the cells were attached in the bottom of the well, the seriously-diluted compounds with different concentrations ([…]) were treated with the cells for 48 hours, and the PTERT(3.4)-SEAP cells without drug treatment were being the control. After 48 hours of drug treatment, the cultured medium were collected for performing the analysis of SEAP activity. The cells were washed with 1×PBS once immediately, and the MTT assay was performed to compare the compounds with the relative toxicity or the influence to the proliferation and activity.
The cellular medium after the cellular incubation was transferred into the eppondorf tube, and the activity of endogeneous alkaline phosphatase was inactivated at 65° C. for 10 minutes. After centrification, the mixture was obtained by mixing 50 μl of the supernatant with the equal volume of the SEAP buffer. The mixture and the substrate (120 mM of p-nitrophenylphosphate) were preheated at 37° C. for 10 minutes respectively, and the mixture and the substrate were mixed at a ratio of 1:10 and reacted at 37° C. The absorbance of visible light at 405 nm was determined at the appropriate time intervals, and the enzymatic activity of SEAP was represented by the speed of the increasing absorbance at 405 nm.

HL-60(TB) = test: In vitro cytotoxicity, Development Therapeutics Program; assay type: cell-based; conditions: leukemia, 1.0×10^−5 M
Description: (§1) From the in vitro experiments of the Development Therapeutics Program of the Cancer Research Institute, the United States, it was known that the synthetic heterocyclic anthraquinone derivatives of the present invention have different inhibition levels to the different cancer cell lines under the concentration of 1.0×10^−5 M. Please refer to Table 2, which is the result of in vitro cytotoxicity of 2,7-disubstituted anthraquinone derivatives of the present invention.

HOP-62 = test: as above; assay type: cell-based; conditions: HOP-62, non-small cell lung cancer; 1.0×10^−5 M
Description: as §1

MCF7 = test: as above; assay type: cell-based; conditions: MCF7, breast cancer; 1.0×10^−5 M
Description: as §1

KM12 = test: as above; assay type: cell-based; conditions: KM12, colon cancer; 1.0×10^−5 M
Description: as §1

A498 = test: as above; assay type: cell-based; conditions: A498, renal cancer; 1.0×10^−5 M
Description: as §1

SK-MEL-28 = test: as above; assay type: cell-based; conditions: SK-MEL-28, melanoma; 1.0×10^−5 M
Description: as §1

UO-31 = test: as above; assay type: cell-based; conditions: UO-31, renal cancer; 1.0×10^−5 M
Description: as §1

TK-10 = test: as above; assay type: cell-based; conditions: TK-10, renal cancer; 1.0×10^−5 M
Description: as §1

NCl-H322M = test: as above; assay type: cell-based; conditions: non-small cell lung cancer, 1.0×10^−5 M
Description: as §1

[1] = BJ1, compound concentration 10 μM
[2] = BJ1, compound concentration 100 μM
[3] = BJ1, compound concentration 1 μM

SMILES | viability at 24 h, 1 µM (MTT assay in H1299 cells) [%] | viability at 24 h, 10 µM (MTT assay in H1299 cells) [%] | viability at 24 h, 100 µM (MTT assay in H1299 cells) [%] | telomerase inhibition effect in TRAP assay (telomerase) | activity at 1 µM (hTERT expression) [%] | activity at 10 µM (hTERT expression) [%] | activity at 100 µM (hTERT expression) [%] | Cellular growth rate (%) (HL-60(TB)) | Cellular growth rate (%) (HOP-62) | Cellular growth rate (%) (MCF7) | Cellular growth rate (%) (KM12) | Cellular growth rate (%) (A498) | Cellular growth rate (%) (SK-MEL-28) | Cellular growth rate (%) (UO-31) | Cellular growth rate (%) (TK-10) | Cellular growth rate (%) (NCl-H322M) | activity at 10 µM (hTERT expression; [1]) [%] | activity at 100 µM (hTERT expression; [2]) [%] | activity at 1 µM (hTERT expression; [3]) [%]
O=C(CN1CCCC1)Nc1ccc2c(c1)C(=O)c1cc(NC(=O)CN3CCCC3)ccc1C2=O [Compound 6, 2,7-Bis[2-(pyrrolidino)acetamido]anthraquinone] | 99 ± 9 | 52 ± 13 | 23 ± 14 | telomerase inhibition effect | – | – | – | – | – | – | – | – | – | – | – | – | – | – | –
CCNCC(=O)Nc1ccc2c(c1)C(=O)c1cc(NC(=O)CNCC)ccc1C2=O [Compound 10, 2,7-Bis[2-(ethylamino)acetamido]anthraquinone] | 52 ± 11 | 24 ± 5 | 3 ± 4 | telomerase inhibition effect | 90 ± 5 | 41 ± 4 | 17 ± 21 | – | – | – | – | – | – | – | – | – | – | – | –
CC(C)NCC(=O)Nc1ccc2c(c1)C(=O)c1cc(NC(=O)CNC(C)C)ccc1C2=O [Compound 13, 2,7-Bis[2-(isopropylamino)acetamido]anthraquinone] | 78 ± 10 | 26 ± 15 | 6 ± 11 | telomerase inhibition effect | 79 ± 14 | 55 ± 19 | 45 ± 11 | – | – | – | – | – | – | – | – | – | – | – | –
O=C(CCN1CCCC1)Nc1ccc2c(c1)C(=O)c1cc(NC(=O)CCN3CCCC3)ccc1C2=O [Compound 18, 2,7-Bis[3-(pyrrolidino)propionamido]anthraquinone] | 87 ± 15 | 54 ± 7 | 12 ± 10 | – | – | – | – | 85.84 | 18.79 | 13.35 | 32.55 | −0.91 | 14.99 | 5.27 | 31.22 | 45.79 | 67 ± 16 | 109 ± 18 | –
CN(C)CCC(=O)Nc1ccc2c(c1)C(=O)c1cc(NC(=O)CCN(C)C)ccc1C2=O [Compound 20, 2,7-Bis[3-(dimethylamino)propionamido]anthraquinone] | 1 ± 104 | 53 ± 13 | 1 ± 1 | telomerase inhibition effect | 86 ± 2 | 61 ± 2 | 38 | – | – | – | – | – | – | – | – | – | – | – | –
CCCC(=O)Nc1ccc2c(c1)C(=O)c1cc(NC(=O)CCC)ccc1C2=O [Compound 28, 2,7-Bis(butyramido)anthraquinone] | 93 ± 14 | 59 ± 13 | 40 ± 15 | telomerase inhibition effect | – | – | – | – | – | – | – | – | – | – | – | – | – | – | –
O=C(Nc1ccc2c(c1)C(=O)c1cc(NC(=O)c3ccccc3)ccc1C2=O)c1ccccc1 [Compound 29, 2,7-Bis(benzoamido)anthraquinone] | 71 ± 24 | 47 ± 13 | 41 ± 30 | telomerase inhibition effect | – | – | – | – | – | – | – | – | – | – | – | – | 72 ± 8 | 36 ± 13 | 89 ± 2
O=C(Cc1ccccc1)Nc1ccc2c(c1)C(=O)c1cc(NC(=O)Cc3ccccc3)ccc1C2=O [Compound 30, 2,7-Bis(phenylacetamido)anthraquinone] | 106 ± 12 | 96 ± 17 | 75 ± 22 | – | – | – | – | – | – | – | – | – | – | – | – | – | 79 ± 6 | 40 ± 15 | 85 ± 8
O=C(CCc1ccccc1)Nc1ccc2c(c1)C(=O)c1cc(NC(=O)CCc3ccccc3)ccc1C2=O [Compound 31, 2,7-Bis(phenylpropionamido)anthraquinone] | 102 ± 11 | 94 ± 13 | 76 ± 18 | – | – | – | – | – | – | – | – | – | – | – | – | – | 92 ± 45 | 43 ± 75 | 74 ± 29
O=C1c2ccc(NC(=O)C3CC3)cc2C(=O)c2cc(NC(=O)C3CC3)ccc21 [Compound 32, 2,7-Bis(cyclopropanecarbonamido)anthraquinone] | 46 ± 14 | 36 ± 13 | 43 ± 15 | – | – | – | – | 62.45 | 91.64 | 77.38 | 92.67 | 92.35 | 108.51 | 95.55 | 136.20 | 105.77 | – | – | –
O=C1c2ccc(NC(=O)C3CCCCC3)cc2C(=O)c2cc(NC(=O)C3CCCCC3)ccc21 [Compound 34, 2,7-Bis(cyclohexanecarbonamido)anthraquinone] | 90 ± 3 | 63 ± 13 | 52 ± 16 | – | – | – | – | – | – | – | – | – | – | – | – | – | 14 ± 53 | 22 ± 7 | 14 ± 67
